In brackets after ≈: the same amount, converted by molar mass.
Legend:
[1] = system: isoniazid resistant (INH: katGdel) strain (MS015); experiment: microbe, parasite or virus in culture; format: cell-based; settings: Mycobacterium tuberculosis, H37RV, read-out: MIC H37Rv (katG^del)
[2] = system: moxifloxacin resistant (MOX: gyrD94K) strain (MOX3); format: cell-based, Mycobacterium tuberculosis
[3] = system: rifampin resistant (RIF:rpoBS450L) strain (ATCC #35838); format: cell-based, Mycobacterium tuberculosis

Structure (SMILES) | MIC [1] [µg/mL] | MIC H37Rv (gyrA^D94K) [2] [mg/L] | MIC H37Rv (rpoB^S450L) [3] [mg/L]
Cc1cc2nc(SCC(=O)N(C(C)C)C(C)C)[nH]c2cc1C [Example 2, 2-[(5,6-dimethyl-1H-1,3-benzodiazol-2-yl)sulfanyl]-N,N-bis(propan-2-yl)acetamide] | 0.5 (≈ 1.57 µM) | 0.5 (≈ 1.57 µM) | 0.25 (≈ 0.783 µM)
CC(C)N(C(=O)CCc1nc2cc(Cl)c(Cl)cc2[nH]1)C(C)C [Example 19] | ≤ 0.125 | ≤0.125 | ≤0.125
Cc1cc2nc(CCC(=O)N(C(C)C)C(C)C)[nH]c2cc1C [Example 21A] | ≤ 0.125 | ≤0.125 | 0.25 (≈ 0.829 µM)

Source: patent publication US20240132479A1, “THERAPEUTIC COMPOUNDS AND USES THEREOF” (Board of Trustees of Michigan State University, priority 2021, published 2024)
